From patent US8841483B2, “Compositions useful as inhibitors of voltage-gated sodium channels” (Vertex Pharmaceuticals Incorporated, priority 2006, dated 2014) come the findings set out here.

The experiment addresses NaV1.8 (Homo sapiens, UniProt Q9Y5Y9). Kind of experiment: Activity against NaV 1.8 channel (Table 3), optical membrane potential / electrophysiology assays. It is filed as cell-based. The procedure:
Compounds of the invention are useful as antagonists of voltage-gated sodium ion channels. Antagonist properties of test compounds were assessed as follows. Cells expressing the NaV of interest were placed into microtiter plates. After an incubation period, the cells were stained with fluorescent dyes sensitive to the transmembrane potential. The test compounds were added to the microtiter plate. The cells were stimulated with either a chemical or electrical means ti evoke a NaV dependent membrane potential change from unblocked channels, which was detected and measured with trans-membrane potential-sensitive dyes. Antagonists were detected as a decreased membrane potential response to the stimulus. The optical membrane potential assay utilized voltage-sensitive FRET sensors described by Gonzalez and Tsien (See, Gonzalez, J. E. and R. Y. Tsien (1995) “Voltage sensing by fluorescence resonance energy transfer in single cells” Biophys J 69(4): 1272-80, and Gonzalez, J. E. and R. Y. Tsien (1997) “Improved indicators of cell membrane potential that use fluorescence resonance energy transfer” Chem Biol 4(4): 269-77) in combination with instrumentation for measuring fluorescence changes such as the Voltage/Ion Probe Reader (VIPR®) (See, Gonzalez, J. E., K. Oades, et al. (1999) “Cell-based assays and instrumentation for screening ion-channel targets” Drug Discov Today 4(9): 431-439).
The following is an example of how NaV1.3 inhibition activity is measured using the optical membrane potential method #2. Other subtypes are performed in an analogous mode in a cell line expressing the NaV of interest.
HEK293 cells stably expressing NaV1.3 are plated into 96-well microtiter plates. After an appropriate incubation period, the cells are stained with the voltage sensitive dyes CC2-DMPE/DiSBAC2(3) as follows.
2X CC2-DMPE=20 μM CC2-DMPE: 10 mM CC2-DMPE is vortexed with an equivalent volume of 10% pluronic, followed by vortexing in required amount of HBSS containing 10 mM HEPES. Each cell plate will require 5 mL of 2X CC2-DMPE. 50 μL of 2X CC2-DMPE is to wells containing washed cells, resulting in a 10 μM final staining concentration. The cells are stained for 30 minutes in the dark at RT.
2X DISBAC2(3) with ABSC1=6 μM DISBAC2(3) and 1 mM ABSC1: The required amount of 10 mM DISBAC2(3) is added to a 50 ml conical tube and mixed with 1 μL 10% pluronic for each mL of solution to be made and vortexed together. Then HBSS/HEPES is added to make up 2X solution. Finally, the ABSC1 is added.
The 2X DiSBAC2(3) solution can be used to solvate compound plates. Note that compound plates are made at 2X drug concentration. Wash stained plate again, leaving residual volume of 50 μL. Add 50 uL/well of the 2X DiSBAC2(3) w/ABSC1. Stain for 30 minutes in the dark at RT.
The electrical stimulation instrument and methods of use are described in ION Channel Assay Methods PCT/US01/21652, herein incorporated by reference. The instrument comprises a microtiter plate handler, an optical system for exciting the coumarin dye while simultaneously recording the coumarin and oxonol emissions, a waveform generator, a current- or voltage-controlled amplifier, and a device for inserting electrodes in well. Under integrated computer control, this instrument passes user-programmed electrical stimulus protocols to cells within the wells of the microtiter plate.
Assay Protocol • 1. Insert or use electrodes into each well to be assayed. • 2. Use the current-controlled amplifier to deliver stimulation wave pulses for 3 s. Two seconds of pre-stimulus recording are performed to obtain the un-stimulated intensities. Five seconds of post-stimulation recording are performed to examine the relaxation to the resting state.
Data are analyzed and reported as normalized ratios of background-subtracted emission intensities measured in the 460 nm and 580 nm channels. Background intensities are then subtracted from each assay channel. […]

As a reminder, the IC50 is the concentration that inhibits the measured activity by half. For `NS(=O)(=O)c1cccc(NC(=O)c2ccc3ccccc3c2)c1` [Compound 62], the IC50 was greater than 10 µM.

Take `NS(=O)(=O)c1cccc(NC(=O)c2ccccc2Oc2ccccc2)c1` [Compound 63]: the IC50 is 2 to 10 µM.

Turning to `CCOc1ccc(C(=O)Nc2cccc(S(N)(=O)=O)c2)cc1` [Compound 64], the half-maximal inhibitory concentration (IC50) is greater than 10 µM.

As for `CCc1cc(C(=O)Nc2cccc(S(N)(=O)=O)c2)ccc1-c1ccccc1` [Compound 65], the half-inhibitory concentration (IC50) is greater than 10 µM.

Take `CCCc1ccc(C(=O)Nc2cccc(S(N)(=O)=O)c2)cc1` [Compound 66]: the IC50 was greater than 10 µM.

With `CC(C)(C)c1ccc(C(=O)Nc2cccc(S(N)(=O)=O)c2)cc1` [Compound 67], the concentration for half-maximal inhibition (IC50) was less than 2 µM.

Take `NS(=O)(=O)c1cccc(NC(=O)c2ccccc2NCc2ccccc2)c1` [Compound 68]: the IC50 is greater than 10 µM.

Take `Cc1ccccc1C(=O)Nc1cccc(S(N)(=O)=O)c1` [Compound 69]: the IC50 is greater than 10 µM.

On to `NS(=O)(=O)c1cccc(NC(=O)c2ccc(Cl)cc2Br)c1` [Compound 70], for which the IC50 is greater than 10 µM.

For the molecule `NS(=O)(=O)c1cccc(NC(=O)c2ccccc2CCc2ccccc2)c1` [Compound 71], the half-maximal inhibitory concentration (IC50) lay in the range of 2 to 10 µM.

`CN(C)S(=O)(=O)c1cccc(NC(=O)c2ccc(C(C)(C)C)cc2)c1` [Compound 72]: the concentration for half-maximal inhibition (IC50) is greater than 10 µM.

On to `NS(=O)(=O)c1cccc(NC(=O)c2cccc(-n3cccn3)c2)c1` [Compound 73], for which the IC50 was greater than 10 µM.

With `NS(=O)(=O)c1cccc(NC(=O)c2cccc(OC(F)(F)F)c2)c1` [Compound 74], the IC50 was greater than 10 µM.

Consider `Cc1ccc(-c2ccccc2C(=O)Nc2cccc(S(N)(=O)=O)c2)cc1` [Compound 75], for which the IC50 was 2 to 10 µM.

In the case of `CC(C)COC(=O)NC1CCN(c2ccccc2C(=O)Nc2cccc(S(N)(=O)=O)c2)CC1` [Compound 76], the 50% inhibitory concentration (IC50) was greater than 10 µM.

Regarding `COc1cc(C)ccc1C(=O)Nc1cccc(S(N)(=O)=O)c1` [Compound 77], the IC50 was greater than 10 µM.

Turning to `CC(C)(C)c1ccc(C(=O)Nc2cccc(S(N)(=O)=O)c2)c(Oc2ccc(F)cc2)c1` [Compound 78, 2-(4-Fluorophenoxy)-4-tert-butyl-N-(3-(aminosulfonyl)phenyl)benzamide], the 50% inhibitory concentration (IC50) is less than 2 µM.

On to `CC(C)(C)c1ccc(C(=O)Nc2ccc(Cl)c(S(N)(=O)=O)c2)cc1` [Compound 79], for which the IC50 is less than 2 µM.

For `CC(C)Cc1ccc(C(=O)Nc2cccc(S(N)(=O)=O)c2)cc1` [Compound 80], the IC50 is less than 2 µM.

Turning to `NS(=O)(=O)c1cccc(NC(=O)c2ccc(C(F)(F)F)cc2C(F)(F)F)c1` [Compound 81], the IC50 was greater than 10 µM.

Take `NS(=O)(=O)c1cccc(NC(=O)c2ccccc2Nc2cccc(-c3nnn[nH]3)c2)c1` [Compound 82]: the 50% inhibitory concentration (IC50) was greater than 10 µM.

For `NS(=O)(=O)c1cccc(NC(=O)c2ccccc2C2CCCCC2)c1` [Compound 83, 2-Cyclohexyl-N-(3-(aminosulfonyl)phenyl)benzamide], the IC50 is less than 2 µM.

`COc1cccc(Oc2ccccc2C(=O)Nc2cccc(S(N)(=O)=O)c2)c1` [Compound 84]: the concentration for half-maximal inhibition (IC50) was 2 to 10 µM.

Take `COc1ccccc1C(=O)Nc1cccc(S(N)(=O)=O)c1` [Compound 85]: the half-maximal inhibitory concentration (IC50) is greater than 10 µM.

As to `NS(=O)(=O)c1cccc(NC(=O)c2cccc(N3CCNC3=O)c2)c1` [Compound 86], the 50% inhibitory concentration (IC50) is greater than 10 µM.

Regarding `CC(C)(C)c1ccc(C(=O)Nc2cc(S(N)(=O)=O)ccc2Cl)cc1` [Compound 87], the half-inhibitory concentration (IC50) is greater than 10 µM.

For the molecule `COc1ccc(Oc2cc(C(C)(C)C)ccc2C(=O)Nc2cccc(S(N)(=O)=O)c2)cc1` [Compound 88], the concentration for half-maximal inhibition (IC50) is less than 2 µM.

On to `NS(=O)(=O)c1cccc(NC(=O)c2ccccc2Oc2cccc(N3CCOCC3)c2)c1` [Compound 89], for which the 50% inhibitory concentration (IC50) was greater than 10 µM.

For `CN(C(=O)c1ccc(C(C)(C)C)cc1)c1cccc(S(N)(=O)=O)c1` [Compound 90, 4-tert-Butyl-N-methyl-N-(3-(aminosulfonyl)phenyl)benzamide], the concentration for half-maximal inhibition (IC50) is greater than 10 µM.

For the molecule `Cc1ccccc1Oc1ccccc1C(=O)Nc1cccc(S(N)(=O)=O)c1` [Compound 91], the IC50 was less than 2 µM.

On to `NS(=O)(=O)c1cccc(NC(=O)c2ccccc2N2CCOCC2)c1` [Compound 92], for which the 50% inhibitory concentration (IC50) is greater than 10 µM.

Regarding `CC(C)(C)c1ccc(C(=O)Nc2cccc(S(N)(=O)=O)c2)c(Br)c1` [Compound 93], the half-maximal inhibitory concentration (IC50) is less than 2 µM.

As to `NS(=O)(=O)c1cccc(NC(=O)c2ccccc2-c2ccccc2)c1` [Compound 94], the concentration for half-maximal inhibition (IC50) is greater than 10 µM.

Take `NS(=O)(=O)c1cccc(NC(=O)c2ccccc2Oc2ccc(F)cc2)c1` [Compound 95]: the IC50 is less than 2 µM.

On to `CCCCc1ccc(C(=O)Nc2cccc(S(N)(=O)=O)c2)cc1` [Compound 96], for which the concentration for half-maximal inhibition (IC50) is greater than 10 µM.

For `CC(C)(C)c1ccc(C(=O)Nc2cccc(S(N)(=O)=O)c2)c(Oc2ccccc2N2CCCCC2)c1` [Compound 97], the 50% inhibitory concentration (IC50) was less than 2 µM.

With `CC(C)(C)c1ccc(C(=O)Nc2cccc(S(N)(=O)=O)c2)c(Oc2ccccc2N2CCOCC2)c1` [Compound 98], the IC50 is less than 2 µM.

Take `Cc1ccc(Oc2cc(C(C)(C)C)ccc2C(=O)Nc2cccc(S(N)(=O)=O)c2)c(C)n1` [Compound 99]: the IC50 is less than 2 µM.

For the molecule `NS(=O)(=O)c1cccc(NC(=O)c2ccc(C(F)(F)F)cc2O)c1` [Compound 100], the concentration for half-maximal inhibition (IC50) was greater than 10 µM.

For `CC(C)(C)c1ccc(C(=O)Nc2cccc(S(N)(=O)=O)c2)c(Oc2ccc(F)cc2Cl)c1` [Compound 101], the IC50 was less than 2 µM.

`CC(=O)c1ccccc1Oc1cc(C(C)(C)C)ccc1C(=O)Nc1cccc(S(N)(=O)=O)c1` [Compound 102]: the IC50 fell in the range of 2 to 10 µM.

On to `CCOc1cc(C(C)(C)C)ccc1C(=O)Nc1cccc(S(N)(=O)=O)c1` [Compound 103], for which the concentration for half-maximal inhibition (IC50) is less than 2 µM.

With `CC(C)(C)c1ccc(C(=O)Nc2cccc(S(N)(=O)=O)c2)c(Oc2ccccc2C(F)(F)F)c1` [Compound 104], the IC50 was less than 2 µM.

As to `CC(C)(C)c1ccc(C(=O)Nc2cccc(S(N)(=O)=O)c2)c(Sc2ccccc2)c1` [Compound 105], the IC50 is less than 2 µM.

Regarding `COc1cc(C(C)(C)C)ccc1C(=O)Nc1cccc(S(N)(=O)=O)c1` [Compound 106], the half-inhibitory concentration (IC50) is less than 2 µM.

With `CC(C)(C)c1ccc(C(=O)Nc2cccc(S(N)(=O)=O)c2)c(Oc2ccc(F)cc2F)c1` [Compound 107], the IC50 was less than 2 µM.

For the molecule `Cc1cc(F)ccc1Oc1cc(C(C)(C)C)ccc1C(=O)Nc1cccc(S(N)(=O)=O)c1` [Compound 108], the IC50 is less than 2 µM.

For the molecule `Cc1ccc(Oc2cc(C(C)(C)C)ccc2C(=O)Nc2cccc(S(N)(=O)=O)c2)c(C)c1` [Compound 109], the IC50 is less than 2 µM.

With `CC(C)(C)c1ccc(C(=O)Nc2cccc(S(N)(=O)=O)c2)c([S+]([O-])c2ccccc2)c1` (stereo not drawn) [Compound 110, 4-tert-Butyl-2-(phenylsulfinyl)-N-(3-sulfamoylphenyl)benzamide], the half-inhibitory concentration (IC50) was in the range of 2 to 10 µM.

Regarding `CC(C)(C)c1ccc(C(=O)Nc2cccc(S(N)(=O)=O)c2)c(Oc2ccccc2C#N)c1` [Compound 111], the IC50 lay in the range of 2 to 10 µM.

`CC(C)(C)c1ccc(C(=O)Nc2cccc(S(N)(=O)=O)c2)c(S(=O)(=O)c2ccccc2)c1` [Compound 112, 4-tert-Butyl-2-(phenylsulfonyl)-N-(3-sulfamoylphenyl)benzamide]: the IC50 lay within 2 to 10 µM.

For the molecule `CC(C)(C)c1ccc(C(=O)Nc2cccc(S(N)(=O)=O)c2)c(Oc2ccc(Cl)cc2Cl)c1` [Compound 113], the IC50 was less than 2 µM.

In the case of `Cc1ncccc1Oc1cc(C(C)(C)C)ccc1C(=O)Nc1cccc(S(N)(=O)=O)c1` [Compound 114], the IC50 is less than 2 µM.

On to `CC(C)(C)c1ccc(C(=O)Nc2cccc(S(N)(=O)=O)c2)c(Oc2ccc(C(F)(F)F)nc2)c1` [Compound 115], for which the half-inhibitory concentration (IC50) is less than 2 µM.
